In ChEMBL document CHEMBL3853263, “Effect of intercalator and Lewis acid-base branched peptide complex formation: boosting affinity towards HIV-1 RRE RNA” (Medchemcomm, 2016):
Numbered stars: 1 amine (or outer) side, 2 acyl side, 3 side chain; on linkers, the order of the positions; unused ones are H or OH. Peptide text beside a SMILES is read from it. Suc = O=C(CCC(=O)[*:2])[*:1]

Experiments:
[1] = Binding affinity to HIV1 HXB3 RRE66 RNA; set-up: species or system Human immunodeficiency virus 1
[2] = Binding affinity to HIV1 wild type [32P]-labeled RRE-2B RNA after 30 mins by electrophoretic mobility shift assay; set-up: species or system Human immunodeficiency virus 1

Kd [1] | SMILES | Kd [2]
0.0024 µM | NCC1O[C@H](O[C@H]2[C@@H](O)[C@H](O[C@@H]3[C@@H](O)[C@H](N)C[C@H](N)[C@H]3O[C@H]3O[C@H](CN)[C@@H](O)[C@H](O)[C@H]3N)O[C@@H]2CNc2c3ccccc3nc3ccccc23)[C@H](N)[C@@H](O)[C@@H]1O (some centres not stated) | 
 | C[C@H](NC(=O)[C@H](C)NC(=O)[C@H](C)NC(=O)[C@H](CCCNC(=N)N)NC(=O)[C@H](CCC(N)=O)NC(=O)[C@H](CCCNC(=N)N)NC(=O)[C@H](CCC(=O)O)NC(=O)[C@H](CCCNC(=N)N)NC(=O)[C@H](Cc1c[nH]c2ccccc12)NC(=O)[C@H](CCCNC(=N)N)NC(=O)[C@H](CCCNC(=N)N)NC(=O)[C@H](CCCNC(=N)N)NC(=O)[C@H](CCCNC(=N)N)NC(=O)[C@H](CC(N)=O)NC(=O)[C@H](CCCNC(=N)N)NC(=O)[C@H](CCCNC(=N)N)NC(=O)[C@H](C)NC(=O)[C@H](CCC(N)=O)NC(=O)[C@H](CCCNC(=N)N)NC(=O)[C@@H](NC(=O)CCC(=O)O)[C@@H](C)O)C(=O)N[C@@H](C)C(=O)N[C@@H](CCCNC(=N)N)C(=O)O (Suc-TRQARRNRRRRWRERQRAAAAR-OH) | 0.1 µM
